Reference: ChEMBL document CHEMBL1154652, “N-(4-(6,7-Disubstituted-quinolin-4-yloxy)-3-fluorophenyl)-2-oxo-3-phenylimidazolidine-1-carboxamides: a novel series of dual c-Met/VEGFR2 receptor tyrosine kinase inhibitors” (Bioorg Med Chem Lett, 2009)
Values belong to the molecule of their own block, whether it stands above or below them. Activity calls are given as the source filed them. No cut-off for these calls is given here.

Legend:
[1] = target: T1, Hepatocyte growth factor receptor (Homo sapiens, UniProt P08581); experiment: Inhibition of GST-tagged c-Met expressed in Sf9 cells
Target sequence in this assay (P08581 whole entry): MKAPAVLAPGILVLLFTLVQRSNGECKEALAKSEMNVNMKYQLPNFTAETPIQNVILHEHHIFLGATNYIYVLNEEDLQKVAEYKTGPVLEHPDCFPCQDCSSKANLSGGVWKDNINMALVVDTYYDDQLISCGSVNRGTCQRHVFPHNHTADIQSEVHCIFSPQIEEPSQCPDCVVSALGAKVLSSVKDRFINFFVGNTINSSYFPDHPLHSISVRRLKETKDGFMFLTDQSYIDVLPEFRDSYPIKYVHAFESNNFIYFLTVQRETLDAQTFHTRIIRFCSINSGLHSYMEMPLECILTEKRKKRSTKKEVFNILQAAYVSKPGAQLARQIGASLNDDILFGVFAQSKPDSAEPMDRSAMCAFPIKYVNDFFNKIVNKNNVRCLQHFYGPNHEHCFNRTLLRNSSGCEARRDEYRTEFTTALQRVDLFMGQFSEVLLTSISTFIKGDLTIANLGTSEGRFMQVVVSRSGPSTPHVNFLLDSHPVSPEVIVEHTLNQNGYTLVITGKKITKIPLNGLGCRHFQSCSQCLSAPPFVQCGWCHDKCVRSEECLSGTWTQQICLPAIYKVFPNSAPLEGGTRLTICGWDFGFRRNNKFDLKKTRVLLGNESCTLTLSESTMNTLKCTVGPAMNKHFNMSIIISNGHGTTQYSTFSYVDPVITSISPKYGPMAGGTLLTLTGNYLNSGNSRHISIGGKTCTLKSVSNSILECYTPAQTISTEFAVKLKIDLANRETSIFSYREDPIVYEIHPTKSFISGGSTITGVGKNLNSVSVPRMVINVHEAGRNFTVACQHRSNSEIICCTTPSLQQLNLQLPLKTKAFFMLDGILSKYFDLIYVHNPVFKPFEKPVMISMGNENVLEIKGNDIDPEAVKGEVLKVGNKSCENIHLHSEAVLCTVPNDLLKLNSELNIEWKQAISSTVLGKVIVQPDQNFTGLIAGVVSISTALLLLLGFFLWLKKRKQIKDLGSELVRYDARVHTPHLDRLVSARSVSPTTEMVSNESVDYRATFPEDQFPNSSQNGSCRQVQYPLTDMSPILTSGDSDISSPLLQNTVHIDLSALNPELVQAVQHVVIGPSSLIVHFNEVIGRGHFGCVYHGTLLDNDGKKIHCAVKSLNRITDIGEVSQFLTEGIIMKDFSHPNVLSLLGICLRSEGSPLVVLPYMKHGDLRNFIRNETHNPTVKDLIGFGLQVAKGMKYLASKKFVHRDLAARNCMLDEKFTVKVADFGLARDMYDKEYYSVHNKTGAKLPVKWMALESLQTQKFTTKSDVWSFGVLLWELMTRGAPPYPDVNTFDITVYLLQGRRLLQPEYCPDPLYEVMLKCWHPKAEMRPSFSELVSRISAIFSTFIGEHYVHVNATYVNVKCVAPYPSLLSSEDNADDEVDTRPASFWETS

[2] = Inhibition of GST-tagged VEGFR expressed in Sf9 cells
[3] = target: T1, Hepatocyte growth factor receptor; experiment: Inhibition of TPR-Met assessed as autophosphorylation
Target sequence in this assay (P08581 25-1390 limits assumed): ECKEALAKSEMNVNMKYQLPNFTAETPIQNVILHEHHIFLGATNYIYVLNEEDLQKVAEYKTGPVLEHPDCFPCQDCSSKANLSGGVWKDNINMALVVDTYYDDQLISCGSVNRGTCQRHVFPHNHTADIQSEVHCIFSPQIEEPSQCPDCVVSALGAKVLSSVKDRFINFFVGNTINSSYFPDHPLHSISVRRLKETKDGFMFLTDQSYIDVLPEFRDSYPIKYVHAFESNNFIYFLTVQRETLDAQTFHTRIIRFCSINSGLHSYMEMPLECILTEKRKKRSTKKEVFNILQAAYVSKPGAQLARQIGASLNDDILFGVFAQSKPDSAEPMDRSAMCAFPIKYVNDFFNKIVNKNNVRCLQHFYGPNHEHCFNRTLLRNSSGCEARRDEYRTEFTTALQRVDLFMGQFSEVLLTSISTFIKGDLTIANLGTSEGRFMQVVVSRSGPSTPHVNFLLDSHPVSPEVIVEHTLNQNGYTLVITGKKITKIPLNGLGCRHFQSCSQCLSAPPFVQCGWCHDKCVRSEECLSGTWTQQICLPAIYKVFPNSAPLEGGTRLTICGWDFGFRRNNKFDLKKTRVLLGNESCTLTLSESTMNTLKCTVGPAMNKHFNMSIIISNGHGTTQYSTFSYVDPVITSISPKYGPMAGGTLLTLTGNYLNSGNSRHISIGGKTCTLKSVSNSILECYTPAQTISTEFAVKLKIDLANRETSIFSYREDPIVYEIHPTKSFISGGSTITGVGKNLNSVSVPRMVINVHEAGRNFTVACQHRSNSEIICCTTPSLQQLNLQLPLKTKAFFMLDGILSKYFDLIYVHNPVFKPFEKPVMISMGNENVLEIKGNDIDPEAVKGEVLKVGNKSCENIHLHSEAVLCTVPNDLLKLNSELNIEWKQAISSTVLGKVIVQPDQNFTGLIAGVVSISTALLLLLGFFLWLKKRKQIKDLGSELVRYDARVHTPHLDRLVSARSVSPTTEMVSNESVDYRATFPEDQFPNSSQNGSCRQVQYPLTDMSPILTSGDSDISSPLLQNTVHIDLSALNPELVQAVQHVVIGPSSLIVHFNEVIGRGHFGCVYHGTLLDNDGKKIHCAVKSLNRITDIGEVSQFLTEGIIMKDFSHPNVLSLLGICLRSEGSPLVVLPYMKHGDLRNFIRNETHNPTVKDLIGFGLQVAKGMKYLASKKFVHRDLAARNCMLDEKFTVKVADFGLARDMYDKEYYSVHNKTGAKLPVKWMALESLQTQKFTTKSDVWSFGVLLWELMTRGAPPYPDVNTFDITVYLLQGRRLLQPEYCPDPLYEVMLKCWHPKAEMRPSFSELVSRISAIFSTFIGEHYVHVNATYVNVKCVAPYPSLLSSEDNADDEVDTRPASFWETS

[4] = Half life in rat; type: ADME, organism-based; conditions: in vivo
[5] = Bioavailability in rat; type: ADME, organism-based; conditions: in vivo
[6] = Inhibition of VEGF-induced ERK phosphorylation in HUVEC; type: cell-based; conditions: Homo sapiens
HUVEC [7] = experiment: Inhibition of VEGF-stimulated proliferation of HUVEC cells; type: functional, cell-based; conditions: Homo sapiens
HUVEC [8] = experiment: Antiangiogenic activity against HUVEC cell assessed as inhibition of tubule formation; type: functional, cell-based; conditions: Homo sapiens
HUVEC [9] = experiment: Antiangiogenic activity against HUVEC cell assessed as inhibition of VEGF-dependent tubule formation; type: functional, Homo sapiens
[10] = target: ALK tyrosine kinase receptor (Homo sapiens) (UniProt Q9UM73); experiment: Inhibition of ALK at 100 uM
[11] = target: Aurora kinase A (Homo sapiens) (UniProt O14965); experiment: Inhibition of Aurora A at 100 uM
[12] = target: Cyclin-dependent kinase 2/cyclin E (Homo sapiens) (UniProt P24864+P24941+O96020); experiment: Inhibition of CDK2/cyclin E at 100 uM; type: protein-complex assay
[13] = target: Serine/threonine-protein kinase Chk1 (Homo sapiens) (UniProt O14757); experiment: Inhibition of CHK1 at 100 uM
[14] = target: Serine/threonine-protein kinase Chk2 (Homo sapiens) (UniProt O96017); experiment: Inhibition of CHK2 at 100 uM
[15] = target: Mast/stem cell growth factor receptor Kit (Homo sapiens) (UniProt P10721); experiment: Inhibition of c-kit at 100 uM
[16] = target: RAF proto-oncogene serine/threonine-protein kinase (Homo sapiens) (UniProt P04049); experiment: Inhibition of c-Raf at 100 uM
[17] = target: Proto-oncogene tyrosine-protein kinase Src (Homo sapiens) (UniProt P12931); experiment: Inhibition of c-SRC at 100 uM
[18] = target: Epidermal growth factor receptor (Homo sapiens) (UniProt P00533); experiment: Inhibition of EGFR at 100 uM
[19] = target: Fibroblast growth factor receptor 1 (Homo sapiens) (UniProt P11362); experiment: Inhibition of FGFR1 at 100 uM
[20] = target: Receptor-type tyrosine-protein kinase FLT3 (Homo sapiens) (UniProt P36888); experiment: Inhibition of Flt3 at 100 uM
[21] = target: Glycogen synthase kinase-3 beta (Homo sapiens) (UniProt P49841); experiment: Inhibition of GSK3-beta at 100 uM
Glycogen synthase kinase-3 beta (Homo sapiens), sequence (P49841 whole entry, looked up): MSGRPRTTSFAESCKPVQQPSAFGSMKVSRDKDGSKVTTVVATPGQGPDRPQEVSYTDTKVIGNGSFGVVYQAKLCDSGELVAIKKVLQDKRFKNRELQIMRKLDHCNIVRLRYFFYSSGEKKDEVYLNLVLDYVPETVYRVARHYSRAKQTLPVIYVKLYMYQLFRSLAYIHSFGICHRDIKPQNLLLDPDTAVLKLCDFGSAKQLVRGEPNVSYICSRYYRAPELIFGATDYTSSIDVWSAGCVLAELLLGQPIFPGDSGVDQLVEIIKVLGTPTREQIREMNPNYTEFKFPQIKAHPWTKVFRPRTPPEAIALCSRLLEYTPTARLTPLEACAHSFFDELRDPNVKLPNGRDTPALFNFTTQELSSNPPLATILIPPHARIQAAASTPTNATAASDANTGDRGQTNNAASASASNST

[22] = target: Inhibitor of nuclear factor kappa-B kinase subunit beta (Homo sapiens) (UniProt O14920); experiment: Inhibition of IKK-beta at 100 uM
Inhibitor of nuclear factor kappa-B kinase subunit beta (Homo sapiens), sequence (O14920 whole entry): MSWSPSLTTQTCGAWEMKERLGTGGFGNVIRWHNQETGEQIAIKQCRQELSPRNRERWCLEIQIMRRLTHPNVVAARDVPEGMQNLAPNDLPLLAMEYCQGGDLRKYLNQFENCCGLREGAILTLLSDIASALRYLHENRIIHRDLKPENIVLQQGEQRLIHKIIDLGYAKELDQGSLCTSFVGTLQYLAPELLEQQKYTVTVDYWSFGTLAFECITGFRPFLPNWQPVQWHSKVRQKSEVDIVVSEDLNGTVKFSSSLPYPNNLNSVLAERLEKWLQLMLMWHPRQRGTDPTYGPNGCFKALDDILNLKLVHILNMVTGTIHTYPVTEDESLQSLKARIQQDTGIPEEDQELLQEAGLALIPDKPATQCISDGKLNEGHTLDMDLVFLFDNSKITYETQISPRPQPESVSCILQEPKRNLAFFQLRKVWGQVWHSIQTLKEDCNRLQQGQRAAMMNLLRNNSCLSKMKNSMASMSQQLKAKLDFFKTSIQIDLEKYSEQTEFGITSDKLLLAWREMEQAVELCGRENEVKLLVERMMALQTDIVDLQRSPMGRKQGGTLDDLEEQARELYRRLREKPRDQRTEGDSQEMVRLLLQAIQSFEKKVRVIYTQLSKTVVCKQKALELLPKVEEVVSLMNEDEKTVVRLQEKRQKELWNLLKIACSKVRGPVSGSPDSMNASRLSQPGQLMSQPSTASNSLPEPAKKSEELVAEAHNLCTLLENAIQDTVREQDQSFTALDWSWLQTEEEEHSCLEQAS

[23] = target: Tyrosine-protein kinase JAK2 (Homo sapiens) (UniProt O60674); experiment: Inhibition of JAK2 at 100 uM
[24] = target: Tyrosine-protein kinase JAK3 (Homo sapiens) (UniProt P52333); experiment: Inhibition of JAK3 at 100 uM
Tyrosine-protein kinase JAK3 (Homo sapiens), sequence (P52333 whole entry): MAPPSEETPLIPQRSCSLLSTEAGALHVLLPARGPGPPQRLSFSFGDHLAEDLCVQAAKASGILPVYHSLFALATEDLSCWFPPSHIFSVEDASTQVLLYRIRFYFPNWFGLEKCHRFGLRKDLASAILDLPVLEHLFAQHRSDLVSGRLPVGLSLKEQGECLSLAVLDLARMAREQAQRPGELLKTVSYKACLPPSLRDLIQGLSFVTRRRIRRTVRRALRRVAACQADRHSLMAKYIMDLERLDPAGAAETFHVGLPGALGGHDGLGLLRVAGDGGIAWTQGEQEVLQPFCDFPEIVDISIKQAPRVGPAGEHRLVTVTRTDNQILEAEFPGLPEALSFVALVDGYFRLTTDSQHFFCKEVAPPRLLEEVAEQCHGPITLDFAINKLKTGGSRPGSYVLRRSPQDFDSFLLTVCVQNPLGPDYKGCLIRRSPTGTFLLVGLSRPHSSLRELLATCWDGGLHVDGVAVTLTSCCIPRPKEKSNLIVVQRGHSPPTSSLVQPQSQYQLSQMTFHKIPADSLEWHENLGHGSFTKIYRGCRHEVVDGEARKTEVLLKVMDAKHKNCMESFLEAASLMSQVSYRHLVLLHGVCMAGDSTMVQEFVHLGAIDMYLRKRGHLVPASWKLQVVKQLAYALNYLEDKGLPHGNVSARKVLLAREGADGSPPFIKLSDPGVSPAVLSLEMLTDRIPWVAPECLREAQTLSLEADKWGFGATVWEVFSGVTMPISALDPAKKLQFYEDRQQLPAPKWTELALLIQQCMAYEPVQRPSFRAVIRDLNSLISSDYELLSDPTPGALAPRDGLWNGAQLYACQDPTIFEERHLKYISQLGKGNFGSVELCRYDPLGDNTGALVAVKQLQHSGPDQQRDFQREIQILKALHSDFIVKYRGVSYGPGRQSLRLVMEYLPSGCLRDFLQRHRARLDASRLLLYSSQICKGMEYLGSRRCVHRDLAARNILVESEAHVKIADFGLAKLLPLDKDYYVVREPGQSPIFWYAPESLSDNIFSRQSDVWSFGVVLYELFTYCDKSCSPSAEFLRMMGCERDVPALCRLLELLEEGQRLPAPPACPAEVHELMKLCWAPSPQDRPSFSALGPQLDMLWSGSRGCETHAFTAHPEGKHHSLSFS

[25] = target: Dual specificity mitogen-activated protein kinase kinase 1 (Homo sapiens) (UniProt Q02750); experiment: Inhibition of MEK1 at 100 uM
[26] = target: T1, Hepatocyte growth factor receptor; experiment: Inhibition of Met at 100 uM
Target sequence in this assay (P08581 whole entry): as the sequence (P08581 whole entry) above

[27] = target: Platelet-derived growth factor receptor alpha (Homo sapiens) (UniProt P16234); experiment: Inhibition of PDGFRalpha at 100 uM
[28] = target: Platelet-derived growth factor receptor beta (Homo sapiens) (UniProt P09619); experiment: Inhibition of PDGFRbeta at 100 uM
[29] = target: RAC-alpha serine/threonine-protein kinase (Homo sapiens) (UniProt P31749); experiment: Inhibition of PKBalpha at 100 uM
[30] = target: Proto-oncogene tyrosine-protein kinase receptor Ret (Homo sapiens) (UniProt P07949); experiment: Inhibition of Ret at 100 uM
[31] = target: Macrophage-stimulating protein receptor (Homo sapiens) (UniProt Q04912); experiment: Inhibition of Ron at 100 uM
[32] = target: Angiopoietin-1 receptor (Homo sapiens) (UniProt Q02763); experiment: Inhibition of Tie-2 at 100 uM
[33] = target: High affinity nerve growth factor receptor (Homo sapiens) (UniProt P04629); experiment: Inhibition of TrkA at 100 uM
[34] = target: Vascular endothelial growth factor receptor 1 (Homo sapiens) (UniProt P17948); experiment: Inhibition of VEGFR1 at 100 uM
[35] = target: Vascular endothelial growth factor receptor 2 (Homo sapiens) (UniProt P35968); experiment: Inhibition of VEGFR2 at 100 uM
[36] = target: Vascular endothelial growth factor receptor 3 (Homo sapiens) (UniProt P35916); experiment: Inhibition of VEGFR3 at 100 uM
MKN-45 = experiment: Antiproliferative activity against human MKN45 cells after 72 hrs by MTT assay; type: functional, cell-based; conditions: MKN-45, 72 h
HCT-116 = experiment: Antiproliferative activity against human HCT116 cells after 72 hrs by MTT assay; type: functional, cell-based; conditions: HCT-116, 72 h
HMEC = experiment: Antiproliferative activity against human HMEC cells after 72 hrs by MTT assay; type: functional, cell-based
HOS-TE85 = experiment: Antitumor activity against human MNNG-HOS cell xenografted mouse assessed as tumor regression at 40 mg/kg, po after 12 days; type: functional, organism-based; parameters: dose 40 mg/kg

Compound: COc1cc2nccc(Oc3ccc(NC(=O)N4CCN(c5ccc(F)cc5)C4=O)cc3F)c2cc1OCCCN1CCOCC1
IC50 [1]: 40 nM
IC50 [2]: 120 nM
IC50 ([3]; read-out: IC50): 30 nM

Compound: COc1cc2nccc(Sc3ccc(NC(=O)N4CCN(c5ccc(F)cc5)C4=O)cc3)c2cc1OC
IC50 [1]: 40 nM
IC50 [2]: 100 nM
IC50 ([3]; read-out: IC50): 80 nM

Compound: COc1cc2nccc(Oc3ccc(NC(=O)N4CCN(C5CCCCC5)C4=O)cc3F)c2cc1OC
IC50 [1]: 110 nM
IC50 [2]: 210 nM
IC50 ([3]; read-out: IC50): 860 nM

Compound: C=CCN1CCN(C(=O)Nc2ccc(Oc3ccnc4cc(OC)c(OC)cc34)c(F)c2)C1=O
IC50 [1]: 200 nM
IC50 [2]: 630 nM
IC50 [3]: Not Active

Compound: COc1cc2nccc(Oc3ccc(NC(=O)N4CCN(c5ccccc5)C4=O)cn3)c2cc1OC
IC50 [1]: 60 nM
IC50 [2]: 1300 nM
IC50 ([3]; read-out: IC50): 5000 nM

Compound: COc1cc2nccc(Oc3ccc(NC(=O)N4CCN(c5ccccn5)C4=O)cc3F)c2cc1OC
IC50 [1]: 40 nM
IC50 [2]: 230 nM
IC50 [3]: Not Active

Compound: COc1cc2nccc(Oc3ccc(NC(=O)N4CCN(c5ccccc5)C4=O)c(F)c3)c2cc1OC
IC50 [1]: 30 nM
IC50 [2]: 50 nM
IC50 ([3]; read-out: IC50): > 10000 nM

Compound: COc1cc2nccc(Nc3ccc(NC(=O)N4CCN(c5ccccc5)C4=O)cc3F)c2cc1OC
IC50 [1]: 200 nM
IC50 [2]: 1400 nM
IC50 [3]: Not Active

Compound: COCCOc1cc2nccc(Oc3ccc(NC(=O)N4CCN(c5ccccc5)C4=O)cc3F)c2cc1OCCOC
IC50 [1]: 60 nM
IC50 [2]: 40 nM
IC50 ([3]; read-out: IC50): 20 nM

Compound: COc1cc2ncnc(Nc3ccc(NC(=O)N4CCN(c5ccccc5)C4=O)cc3F)c2cc1OC
IC50 [1]: 600 nM
IC50 [2]: > 2000 nM
IC50 ([3]; read-out: IC50): 3300 nM

Compound: COc1cc2nccc(N(C)c3ccc(NC(=O)N4CCN(c5ccccc5)C4=O)cc3F)c2cc1OC
IC50 [1]: 400 nM
IC50 [2]: 5900 nM
IC50 [3]: Not Active

Compound: COc1cc2ncnc(N(C)c3ccc(NC(=O)N4CCN(c5ccccc5)C4=O)cc3F)c2cc1OC
IC50 [1]: 4000 nM
IC50 [2]: > 2000 nM
IC50 ([3]; read-out: IC50): > 10000 nM

Compound: COc1cc2nccc(Oc3ccc(NC(=O)N4CCN(c5ccncc5)C4=O)cc3F)c2cc1OC
IC50 [1]: 100 nM
IC50 [2]: 600 nM
IC50 ([3]; read-out: IC50): 630 nM

Compound: COc1cc2nccc(Oc3ccc(NC(=O)N4CCN(N5CCCCC5)C4=O)cc3F)c2cc1OC
IC50 [1]: 60 nM
IC50 [2]: 370 nM
IC50 ([3]; read-out: IC50): 640 nM

Molecules with a lower IC50 [2], results first:

IC50 [2]: 32 nM
Compound: COc1cc2nccc(Oc3ccc(NC(=S)NC(=O)Cc4ccccc4)cc3F)c2cc1OC

IC50 [1]: 50 nM
IC50 [2]: 30 nM
IC50 ([3]; read-out: IC50): 240 nM
Compound: COc1cc2nccc(Oc3ccc(NC(=O)N4CCN(c5ccccc5)C4=O)cc3)c2cc1OC

IC50 [1]: 40 nM
IC50 [2]: 30 nM
IC50 ([3]; read-out: IC50): > 1000 nM
Compound: COc1cc2ncnc(Oc3ccc(NC(=O)N4CCN(c5ccccc5)C4=O)cc3F)c2cc1OC

IC50 [1]: 50 nM
IC50 [2]: 30 nM
IC50 ([3]; read-out: IC50): 150 nM
Compound: COc1cc2nccc(Oc3ccc(NC(=O)N4CCN(c5ccccc5OC)C4=O)cc3F)c2cc1OC

IC50 [1]: 50 nM
IC50 [2]: 30 nM
IC50 ([3]; read-out: IC50): 150 nM
Compound: COc1cc2nccc(Oc3ccc(NC(=O)N4CCN(c5ccc(F)cc5)C4=O)cc3)c2cc1OC

IC50 [1]: 50 nM
IC50 [2]: 30 nM
IC50 ([3]; read-out: IC50): 50 nM
Compound: COc1cc2c(Oc3ccc(NC(=O)N4CCN(c5ccccc5)C4=O)cc3F)ccnc2cc1OCCCN1CCOCC1

IC50 [2]: 26 nM
Compound: Cn1cnc(-c2cc3nccc(Oc4ccc(NC(=S)NC(=O)Cc5ccccc5)cc4F)c3s2)c1

IC50 [1]: 30 nM
IC50 [2]: 20 nM
IC50 ([3]; read-out: IC50): > 10000 nM
Compound: COc1cc2nccc(Oc3ccc(NC(=O)N4CCN(c5ccccc5)C4=O)nc3)c2cc1OC

IC50 [1]: 50 nM
IC50 [2]: 20 nM
IC50 ([3]; read-out: IC50): 130 nM
Compound: COc1cc2c(Oc3ccc(NC(=O)N4CCN(c5ccccc5)C4=O)cc3F)ccnc2cc1OCC1CCN(C)CC1

IC50 [1]: 60 nM
IC50 [2]: 20 nM
IC50 ([3]; read-out: IC50): 370 nM
Compound: COc1cc2nccc(Oc3ccc(NC(=O)N4CCN(c5ccccc5F)C4=O)cc3F)c2cc1OC

IC50 [1]: 30 nM
IC50 [2]: 20 nM
IC50 ([3]; read-out: IC50): 90 nM
Compound: COc1cc2nccc(Oc3ccc(NC(=O)N4CCN(c5ccc(F)cc5)C4=O)cc3F)c2cc1OC

IC50 [1]: 40 nM
IC50 [2]: 20 nM
IC50 ([3]; read-out: IC50): 80 nM
Compound: COc1cc2c(Oc3ccc(NC(=O)N4CCN(c5ccccc5)C4=O)cc3F)ccnc2cc1OCC1CCNCC1

IC50 [1]: 50 nM
IC50 [2]: 15 nM
IC50 ([3]; read-out: IC50): 200 nM
Compound: COc1cc2nccc(Oc3ccc(NC(=O)N4CCN(c5cccc(F)c5)C4=O)cc3F)c2cc1OC

IC50 [2]: 10 nM
IC50 ([3]; read-out: IC50): 90 nM
half-life [4]: 264 min
bioavailability [5]: 22%
IC50 [6]: < 1 nM
inhibition [10]: 0%
inhibition [11]: 0%
inhibition [12]: 0%
inhibition [13]: 0%
inhibition [14]: 1%
inhibition [15]: 12%
inhibition [16]: 42%
inhibition [17]: 7%
inhibition [18]: 0%
inhibition [19]: 11%
inhibition [20]: 72%
inhibition [21]: 0%
inhibition [22]: 0%
inhibition [23]: 4%
inhibition [24]: 6%
inhibition [25]: 0%
inhibition [26]: 100%
inhibition [27]: 26%
inhibition [28]: 6%
inhibition [29]: 0%
inhibition [30]: 96%
inhibition [31]: 92%
inhibition [32]: 23%
inhibition [33]: 94%
inhibition [34]: 100%
inhibition [35]: 92%
inhibition [36]: 93%
IC50 (MKN-45): 8 nM
IC50 (HCT-116): 300 nM
Compound: COc1cc2nccc(Oc3ccc(NC(=O)N4CCN(c5ccccc5)C4=O)cc3F)c2cc1OC
IC50 (HUVEC [7]): 2 nM
IC50 (HUVEC [8]): 8 nM
inhibition (INH) (HUVEC [9]): 99.4%
IC50 (HMEC): > 2500 nM
Activity (HOS-TE85): Active

IC50 [2]: 8 nM
Compound: Cn1cnc(-c2cc3nccc(Oc4ccc(NC(=O)N5CCN(c6ccccc6)C5=O)cc4F)c3s2)c1
